Patent US20060148710A1, “Oligopeptides, composition and use thereof as elicitors of the natural defences of plants” (DE Sangosse SA, priority 2003, published 2006)
Where “and” joins values, the source holds several entries; their conditions need not be identical. Equal entries are not always repeated.

Key:
Zucchini plants = assay: Peroxydasic activity in treated zucchini plants; assay type: in vivo; conditions: for Peroxydasic activity / Percent of peroxydasic activity relative to the product: zucchini plants aged 3 weeks, product 3.5 mg/L; for Percent of peroxydasic activity relative to the product: product 6 = 100%; for elicitor activity: zucchini plants, comparison in words
Description: (§1) a) Measurement of the Peroxydasic Acttivity (Enzyme Endogenous to Plants)
(§2) Given the primordial role of the peroxydases in the resistance of plants, we have used the peroxydasic activity as a marker of the resistance following treatments by elicitors.
(§3) So as to measure the peroxydasic activities, leaves are crushed in a citrate-monohydrogeno-phosphate-disodium buffer. The extract is then placed in gaiacol and oxygenated water. A rapid reaction takes place: the gaiacol is transformed into tetragaiacol. The appearance of tetragaiacol in the medium permits us to calculate the peroxydasic activity.
(§4) Measurements are carried out in this same buffer by using the gaiacol as substrate. The results are expressed in ΔDO/mn/g of fresh material.
(§5) All the plants tested are young plants obtained from seed or by slipping. Pulverization is effected of the formulations obtained from oligopeptides. These formulations contain various wetting or penetrating agents capable of carrying the active material (oligopeptides) to the cells.
Zucchini plants aged 3 weeks have been treated with oligopeptides.

tobacco plants = conditions: 10 mM; cited from earlier work
Grape plants [1] = assay: Peroxydasic activity in treated grape plants; assay type: in vivo; conditions: grape plants aged 3 weeks
Description: as §1, §2, §3, §4, §5
(§6) Grape plants aged 3 weeks have been treated with oligopeptides. The results obtained are assembled in Tables II, III (Sheet 1/2).

Grape plants [2] = assay: Chitinasic activity in treated grape plants; assay type: in vivo; conditions: grape plants aged 3 weeks
Experimental: b) Measurement of the Chitinasic Activity
So as to verify that the mechanisms of resistance are triggered, we have also measured an enzymatic activity appearing in the situations of resistance: the chitinasic activity (enzyme synthesis upon attack of the parasites, which degrades chitin, constituting the walls of the phytopathogenic mushrooms).
Colormetric reaction used: there is used an acetate buffer:
Solution of chitin+enzymatic extract+acetate buffer qsp 0.5 ml (blue at 2 mg/ml) crude 50 mM-(pH5) (100 microliters)
incubation for 30 minutes at 37° C., and under continuous agitation.
the reaction is stopped by addition of a solution of HCL 1N
colormetric or spectrophotometric measurement at 550 nm
The chitinasic activity is expressed as ΔDO/mn/g of fresh material.
as §5, §6

| Compound | Peroxydasic activity (Zucchini plants) | Percent of peroxydasic activity relative to the product (Zucchini plants) | further results |
| --- | --- | --- | --- |
| H-Ala2-Ala-ol [Product 8] | 94.6 ΔDO/min/aMF | 27.18% | – |
| H-Ala4-Ala-ol [Product 10] | 194 ΔDO/min/aMF | 55.74% | – |
| H-Ala5-Ala-ol [Product 11] | 102 ΔDO/min/aMF | 29.31% | – |
| CC(C)(N)C(=O)O [Aib, α-aminoisobutyric acid, reference compound] | 53.1 ΔDO/min/aMF | 15.26% | – |
| H-Ala3-Ala-ol [Product 9] | 112 ΔDO/min/aMF | 32.18% | – |
| CCC(N)C(=O)O (stereo not drawn) [α-aminobutyric acid] | – | – | capacity to trigger the ARS (tobacco plants): less active |
| CC(N)CC(=O)O (stereo not drawn) [β-aminobutyric acid] | – | – | capacity to trigger the ARS (tobacco plants): active |
| CC(N)CO (centres unmarked) [Alininol, Alaninol, reference compound] | 69.46 ΔDO/min/aMF | 19.96% | elicitor activity (Zucchini plants): most active of the residues tested |
| NCCCC(=O)O [GABA, γ-aminobutyric acid, reference compound] | 49.1 ΔDO/min/aMF | 14.11% | capacity to trigger the ARS (tobacco plants): totally inactive |
| H-Alan-Ala-ol [Product 6] | 348 ΔDO/min/aMF | 100% | elicitor activity (Zucchini plants): strongest elicitor activity; Percent of peroxydasic activity relative to the most active product (Grape plants [1]): 81.66%; Peroxydasic activity (Grape plants [1]): 187.5 ΔDO/mn/g of fresh material; Chitinasic activity (Grape plants [2]): 45.4 ΔDO/mn/g of fresh material; Percent of chitinasic activity relative to the most active product (Grape plants [2]): 80.94% |
| H-Alan-Ala-OH [Product 13] | – | – | Percent of peroxydasic activity relative to the most active product (Grape plants [1]): 59.49%; Peroxydasic activity (Grape plants [1]): 136.6 ΔDO/mn/g of fresh material; Chitinasic activity (Grape plants [2]): 65.3 ΔDO/mn/g of fresh material; Percent of chitinasic activity relative to the most active product (Grape plants [2]): 100% |
| H-Ala1-Ala-ol [Product 7] | 99.16 ΔDO/min/aMF | 28.49% | – |
| C[C@H](N)C(=O)O [Alanine, reference compound] | 65.78 ΔDO/min/aMF | 18.9% | – |
| H-Ala6-Ala-OH [Product 12] | 175 ΔDO/min/aMF | 50% and 50.28% | – |
